Test [1] relates to Staphylococcus aureus. In words: Inhibition of C-terminal hexahistidine-tagged recombinant Staphylococcus aureus Ddl expressed in Escherichia coli BL21(DE3) assessed as remaining activity using D-Ala as substrate at 250 uM incubated for 5 mins in presence of ATP by antimony phosphomolybdate assay (reference value: 100+/-2%).
A short description of test [2]: Inhibition of C-terminal hexahistidine-tagged recombinant Staphylococcus aureus Ddl expressed in Escherichia coli BL21(DE3) using D-Ala as substrate in presence of ATP by PK/LDH couples assay.

In the case of `CC1(C)O[C@@H]2[C@H](O1)[C@@H](CCNS(=O)(=O)NC(=O)OCCc1ccc(Cl)c(Cl)c1)O[C@H]2n1cnc2c(N)ncnc21`, in test [1], the Activity came out at 89%.

Take `CC(C)(C)OC(=O)N[C@@H]1CON(CCO)C1=O`: the Activity in test [1] worked out at 90%.

In the case of `Nc1ncnc2c1ncn2[C@@H]1O[C@H](CCNS(=O)(=O)NC(=O)OCCc2ccc(Cl)c(Cl)c2)[C@@H](O)[C@H]1O`, in test [1], the Activity was 85%.

As a reminder, the IC50 is the point on the concentration scale where inhibition reaches its midpoint. In the case of `Nc1ncnc2c1ncn2[C@@H]1O[C@H](CCNS(=O)(=O)NC(=O)OCCCC2CCCC2)[C@@H](O)[C@H]1O`, the Activity in test [1] turned out to be 79%. For the same compound, the IC50 in test [2] was more than 2500 µM.

Take `Nc1ncnc2c1ncn2[C@@H]1O[C@H](CCNS(N)(=O)=O)[C@@H](O)[C@H]1O`: the Activity in test [1] turned out to be 72%. For the same compound, the IC50 in test [2] is 1600 µM.

Consider `Nc1ncnc2c1ncn2[C@@H]1O[C@H](CCNS(=O)(=O)NC(=O)OCCc2ccccc2Cl)[C@@H](O)[C@H]1O`, for which, in test [1], the Activity is 87%.

On to `Nc1ncnc2c1ncn2CCCCNS(=O)(=O)NC(=O)OCCc1ccc(Cl)c(Cl)c1`, for which, in test [1], the Activity was determined as 110%.

Turning to `CC1CNCCN1CCOC(=O)NS(=O)(=O)NCC[C@H]1O[C@@H](n2cnc3c(N)ncnc32)[C@H](O)[C@@H]1O` (stereo partly drawn), in test [1], the Activity was 76%. Also, the half-inhibitory concentration (IC50) in test [2] was more than 2500 µM.

For the compound `COc1ccc(CCCCOC(=O)NS(=O)(=O)NCC[C@H]2O[C@@H](n3cnc4c(N)ncnc43)[C@H](O)[C@@H]2O)cc1`, the Activity in test [1] is 90%.

For the compound `COc1ccc(CCOC(=O)NS(=O)(=O)NCC[C@H]2O[C@@H](n3cnc4c(N)ncnc43)[C@H](O)[C@@H]2O)cc1`, the Activity in test [1] was 89%.

`CC1CN(C(=O)OC(C)(C)C)CCN1CCOC(=O)NS(=O)(=O)NCC[C@H]1O[C@@H](n2cnc3c(N)ncnc32)[C@H](O)[C@@H]1O` (stereo partly drawn): the Activity in test [1] was found to be 95%.

For `CC1(C)O[C@@H]2[C@H](O1)[C@@H](CCN)O[C@H]2n1cnc2c(N)ncnc21`, the Activity in test [1] was 82%.

Take `Nc1ncnc2c1ncn2[C@@H]1O[C@H](CCNS(=O)(=O)NC(=O)OCCc2cccc(Cl)c2)[C@@H](O)[C@H]1O`: the Activity in test [1] was 91%.

On to `N[C@@H]1CONC1=O` [CYCLOSERINE], for which the Activity in test [1] is 35%. Moreover, in test [2], the IC50 amounted to 100 µM.

Regarding `Nc1ncnc2c1ncn2[C@@H]1O[C@H](CCNS(=O)(=O)NC(=O)OCCN2OC[C@@H](N)C2=O)[C@@H](O)[C@H]1O`, the Activity in test [1] is 70%. Further, in test [2], the IC50 is 1700 µM.

As for `Cc1ccc(CCCOC(=O)NS(=O)(=O)NCC[C@H]2O[C@@H](n3cnc4c(N)ncnc43)[C@H](O)[C@@H]2O)cc1`, the Activity in test [1] came out at 82%.

Turning to `Nc1ncnc2c1ncn2[C@@H]1O[C@H](CCNS(=O)(=O)NC(=O)OCCc2ccccc2)[C@@H](O)[C@H]1O`, the Activity in test [1] amounted to 80%. For the same compound, the concentration for half-maximal inhibition (IC50) in test [2] was more than 2500 µM.

For the compound `NCC[C@H]1O[C@@H](n2cnc3c(N)ncnc32)[C@H](O)[C@@H]1O`, the Activity in test [1] stood at 63%. Besides, the IC50 in test [2] worked out at 2200 µM.

For `CC(C)(C)OC(=O)NS(=O)(=O)NCC[C@H]1O[C@@H](n2cnc3c(N)ncnc32)[C@@H]2OC(C)(C)O[C@@H]21`, the Activity in test [1] was determined as 91%.

With `Nc1ncnc2c1ncn2[C@@H]1O[C@H](CCNS(=O)(=O)NC(=O)OCCc2ccccc2F)[C@@H](O)[C@H]1O`, the Activity in test [1] was 84%.

Regarding `Nc1ncnc2c1ncn2[C@@H]1O[C@H](CCNS(=O)(=O)NC(=O)OCCCc2ccc(Cl)cc2)[C@@H](O)[C@H]1O`, the Activity in test [1] turned out to be 96%.
